Laboratory results: patent US20240044922A1, “DEVICE AND METHODS FOR MEASURING PLATELET-FIBRIN CLOT CONTRACTION KINETICS” (University of Kentucky Research Foundation, priority 2022, published 2024)

System: washed mouse platelets
Test: Clot contraction assay, time-lapse imaging of washed mouse platelets with thrombin, fibrinogen and CaCl2
Type: cell-based
[1] = increased thrombin concentration, 10-200 mU/mL
[2] = thrombin 10 mU/mL, CaCl2 0.5 mM, fibrinogen 250 μg/mL
[3] = thrombin 20 mU/mL, CaCl2 0.5 mM, fibrinogen 250 μg/mL
[4] = thrombin 30 mU/mL, CaCl2 0.5 mM, fibrinogen 250 μg/mL
[5] = thrombin 50 mU/mL, CaCl2 0.5 mM, fibrinogen 250 μg/mL
[6] = thrombin 100 mU/mL, CaCl2 0.5 mM, fibrinogen 250 μg/mL
[7] = blebbistatin 50 μM, standard conditions
[8] = blebbistatin 100 μM, standard conditions
[9] = blebbistatin 200 μM, standard conditions

## Thrombin
[1]
  Effect on extent of clot contraction: remained unchanged
  Effect on lag time: decreased
Over the thrombin concentration range tested
  Increase of Phase 1 (initiation) rate: ~5 fold
[2]
  AUC: 5.62 AU
  Average Velocity: 0.82 %/min
  Clot Contraction Extent: 80.19%
  Lag time: 28.33 min
  PHASE 1 % Contraction: 4.93%
  PHASE 1 Rate 1: 4.27 ×10^−3 %/min
  PHASE 1 t1: 13.33 min
  PHASE 2 % Contraction: 23.95%
  PHASE 2 Rate 2: 1.02 %/min
  PHASE 2 t2: 36.00 min
  PHASE 3 % Contraction: 51.32%
  PHASE 3 Rate 3: 3.93 ×10^−2 %/min
[3]
  AUC: 4.90 AU
  Average Velocity: 0.90 %/min
  Clot Contraction Extent: 88.45%
  Lag time: 19.33 min
  PHASE 1 % Contraction: 4.66%
  PHASE 1 Rate 1: 4.67 ×10^−3 %/min
  PHASE 1 t1: 11.33 min
  PHASE 2 % Contraction: 31.74%
  PHASE 2 Rate 2: 1.33 %/min
  PHASE 2 t2: 36.33 min
  PHASE 3 % Contraction: 52.05%
  PHASE 3 Rate 3: 3.63 ×10^−2 %/min
[4]
  AUC: 4.10 AU
  Average Velocity: 0.94 %/min
  Clot Contraction Extent: 92.41%
  Lag time: 15.33 min
  PHASE 1 % Contraction: 6.03%
  PHASE 1 Rate 1: 6.67 ×10^−3 %/min
  PHASE 1 t1: 8.67 min
  PHASE 2 % Contraction: 20.91%
  PHASE 2 Rate 2: 1.67 %/min
  PHASE 2 t2: 22.00 min
  PHASE 3 % Contraction: 65.45%
  PHASE 3 Rate 3: 2.70 ×10^−2 %/min
[5]
  AUC: 3.69 AU
  Average Velocity: 0.94 %/min
  Clot Contraction Extent: 92.51%
  Lag time: 10.67 min
  PHASE 1 % Contraction: 6.96%
  PHASE 1 Rate 1: 27.33 ×10^−3 %/min
  PHASE 1 t1: 6.67 min
  PHASE 2 % Contraction: 16.04%
  PHASE 2 Rate 2: 1.97 %/min
  PHASE 2 t2: 18.00 min
  PHASE 3 % Contraction: 69.51%
  PHASE 3 Rate 3: 3.10 ×10^−2 %/min
[6]
  AUC: 3.32 AU
  Average Velocity: 0.97 %/min
  Clot Contraction Extent: 94.93%
  Lag time: 9.00 min
  PHASE 1 % Contraction: 6.55%
  PHASE 1 Rate 1: 21.33 ×10^−3 %/min
  PHASE 1 t1: 5.00 min
  PHASE 2 % Contraction: 19.72%
  PHASE 2 Rate 2: 2.02 %/min
  PHASE 2 t2: 18.67 min
  PHASE 3 % Contraction: 68.67%
  PHASE 3 Rate 3: 3.43 ×10^−2 %/min

## Cc1ccc2c(c1)C(=O)C1(O)CCN(c3ccccc3)C1=N2 (stereo not shown) [Blebbistatin, blebbistatin, reference compound]
[7]
  AUC: 4.18 AU
  Average Velocity: 1.00 %/min
  Clot Contraction Extent: 96.93%
  Lag time: 23.33 min
  PHASE 1 % Contraction: 4.23%
  PHASE 1 Rate 1: 3.67 ×10^−3 %/min
  PHASE 1 t1: 14.33 min
  PHASE 2 % Contraction: 26.51%
  PHASE 2 Rate 2: 1.40 %/min
  PHASE 2 t2: 32.00 min
  PHASE 3 % Contraction: 66.19%
  PHASE 3 Rate 3: 5.00 ×10^−2 %/min
[8]
  AUC: 6.08 AU
  Average Velocity: 0.88 %/min
  Clot Contraction Extent: 85.15%
  Lag time: 40.00 min
  PHASE 1 % Contraction: 7.21%
  PHASE 1 Rate 1: 4.00 ×10^−3 %/min
  PHASE 1 t1: 24.67 min
  PHASE 2 % Contraction: 28.71%
  PHASE 2 Rate 2: 1.00 %/min
  PHASE 2 t2: 51.00 min
  PHASE 3 % Contraction: 49.27%
  PHASE 3 Rate 3: 3.47 ×10^−2 %/min
[9]
  AUC: 6.79 AU
  Average Velocity: 0.69 %/min
  Clot Contraction Extent: 66.52%
  Lag time: 43.67 min
  PHASE 1 % Contraction: 12.21%
  PHASE 1 Rate 1: 5.00 ×10^−3 %/min
  PHASE 1 t1: 31.00 min
  PHASE 2 % Contraction: 14.17%
  PHASE 2 Rate 2: 0.69 %/min
  PHASE 2 t2: 49.33 min
  PHASE 3 % Contraction: 40.15%
  PHASE 3 Rate 3: 1.70 ×10^−2 %/min
Blebbistatin 50 to 200 μM
  Effect on Phase 2 contraction rate: drastic decrease
  Effect on average velocity: decrease
  Effect on extent of clot contraction: decrease
  Effect on lag time: dose-dependent increase
